Test results published in PMC11222147, “Host defence peptide plectasin targets bacterial cell wall precursor lipid II by a calcium-sensitive supramolecular mechanism” (Nature Microbiology, 2024).
Converted amounts (≈) assume the structure as drawn. Read-outs that look alike come from different tables or passages of the source.

Tests used:
[1] = Confocal microscopy of GUVs doped with Und-NBD-lipid II; conditions: GUVs 0.4 mol% Und-NBD-LII in DOPC, 1 μM antibiotic
Protocol: GUVs were prepared by electroformation using in-house build Teflon cells with two titanium wires as electrodes. About 1 μl of 0.5 mM DOPC with 0.4 mol% NBD–lipid II in 2:1 CHCl3/MeOH was brushed on both electrodes and thoroughly dried under vacuum. Next, the cell was filled with 350 μl 300 mM sucrose, and GUVs were formed by applying an oscillating voltage (sine wave, 2 V, 10 Hz) for 90 min and released from the electrodes (square wave, 2 V, 2 Hz). Microscopy slides were precoated using a 1 mg ml^−1 BSA solution. Slides were filled with 300 μl 300 mM glucose solution, followed by addition of the antibiotic and finally 30–50 μl GUV solution. The GUVs were imaged using a Zeiss LSM 880 confocal microscope with a ×63/1.2NA glycerol objective lens. Green fluorescence (530–545 nm) was detected after excitation with a 488 nm laser.

[2] = ITC of bivalent cation binding to plectasin in solution; conditions: mean of duplicate, read-out: Kd, Mg^2+ binding to plectasin (ITC)
S. simulans 22 [3] = type: cell-based, Staphylococcus simulans; conditions: for MIC: cation-depleted MHB + 0.5 mM MgCl2 + 10 µM ZnSO4
Protocol: Cation-depleted MHB was prepared as previously described[18] and supplemented with MgCl2 (0.5 mM) and ZnSO4 (10 µM). Plectasin was serially diluted twofold over a 96-well polypropylene plate. Serial dilutions of Ca^2+ in calcium-depleted medium were subsequently added to the wells containing the plectasin dilution series, followed by addition of bacterial suspensions. MICs were determined by visual inspection after 16–20 h (Staphylococcus). The effect of reduced Ca^2+ levels on S. simulans growth in the absence of plectasin was assessed by monitoring growth at 37 °C by OD600 over 18 h (Supplementary Fig. 4).

[4] = Tryptophan fluorescence spectroscopy, lipid II binding affinity
Protocol: Plectasin’s single tryptophan can be used to monitor insertion into the membrane. Measurements were done on a Cary Eclipse (FL0904M005) fluorimeter at 20 °C under constant stirring in a 4 × 10 mm quartz cuvette. For titration experiments, the cuvette was oriented perpendicular to the excitation beam to minimize scattering. LUVs with or without 2 mol% lipid II (prepared as described above at 1–5 mM total lipid concentration) were titrated to 100 nM plectasin in 50 mM HEPES, 150 mM NaCl at pH = 7.2. Fluorescence was excited at 280 nm (5 nm slit) and recorded between 300 and 400 nm (10 nm slit) at 1 nm intervals with 1 s averaging per point. Spectra were corrected for a blank using buffer and for scattering using a titration series in the absence of plectasin. Corrected spectra were fit with log-normal distributions, and the shift of the resulting wavelength of maximum fluorescence (Δλmax) as a function of lipid II concentration on the outside of the vesicles was fit using a quadratic binding equation[54] to obtain the binding affinities.

S. simulans = test: Bacterial permeabilization assay (DiSC2(5), SYTOX green); type: cell-based, Staphylococcus simulans; conditions: DiSC2(5) and SYTOX green, concentrations higher than the MIC, 20 °C
Protocol: Overnight cultures (37 °C, TSB) of S. simulans were diluted to OD600 = 0.1 and grown until mid-log phase (OD600 = 0.5–0.8) and collected by centrifugation (2,000 × g, room temperature, 5 min). Cell pellets were washed with buffer (10 mM Tris, 50 mM NaCl and 0.5% w/v glucose at pH = 7.2), resuspended to OD600 = 10 and stored at 4 °C until use. All assays were performed on a Cary Eclipse (FL0904M005) fluorometer. Measurements were done using bacterial suspensions at OD600 = 0.05 in the aforementioned buffer under constant stirring at 20 °C in a 4 × 10 mm quartz cuvette. About 0.2 µM 3,3′-diethylthiadicarbocyanine iodide or 0.25 µM SYTOX green was added and equilibrated for 2 min before addition of an antibiotic. For 3,3′-diethylthiadicarbocyanine iodide, we used excitation and emission wavelengths of 650 nm and 670 nm, respectively, while for SYTOX green, we used 504 nm and 523 nm. About 5 nm slits were used, and fluorescence signal was averaged every 0.3 s.

S. simulans 22 [5] = test: MIC assays under standard conditions; type: cell-based, Staphylococcus simulans
How it was run: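 Broth microdilution in cation-adjusted MHB, inoculum from OD600 0.5 TSB culture diluted 100-fold, 37 °C with shaking. Streptococci: 5% lysed horse blood, 5% CO2, MIC read visually at 20–24 h; S. simulans read at 16–20 h.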

S. pyogenes M3 = test: MIC assays under standard conditions; type: cell-based, Streptococcus pyogenes; conditions: Supplementary Table 1; cation-adjusted MHB + 5% lysed horse blood, 5% CO2, 20–24 h
Protocol: Plectasin and analogues were serially diluted in cation-adjusted Mueller–Hinton broth (MHB) in round-bottom polypropylene 96-well plates (50 µl per well). Selected bacterial strains were grown from glycerol stocks on blood agar plates. Individual colonies were inoculated in TSB and incubated at 37 °C while shaking until OD600 reached 0.5. Bacterial suspensions were then diluted 100 times in cation-adjusted MHB and distributed (50 μl per well) over the microplate containing the diluted plectasin solutions. Plates were covered by a gas-permeable adhesive membrane and incubated at 37 °C while shaking. MICs were determined by visual inspection after 16–20 h (Staphylococcus) or 20–24 h (Streptococcus). For Streptococcus strains, the broth was additionally supplemented with 5% lysed horse blood, and the microplates were incubated under 5% CO2 atmosphere. In the assays, we used the following strains: S. simulans, S. pneumoniae serotype 8, S. pneumoniae ATCC6305 and Streptococcus pyogenes M3.

[6] = HS-AFM oligomerization on supported lipid bilayers doped with lipid II; conditions: DOPC/DOPG (1:1), 1% lipid II, 1 mM Ca^2+
Protocol: HS-AFM imaging was performed on a supported lipid bilayer deposited on mica using an amplitude modulation tapping mode HS-AFM from RIBM (Ando type)[11]. The lipid compositions are as stated in the experimental conditions of the corresponding results. Short cantilevers (∼7 μm) with a nominal spring constant of 0.15 N m^−1 were used (USC-F1.2-k0.15, NanoWorld) for all experiments. A minimal imaging force was applied by using a small set-point amplitude, typically 80% of the free amplitude (for 1–2 nm of free amplitude). […] Imaging was started on the lipid bilayer surface in recording buffer. […] All reported experiments were repeated for at least three times for each condition. Image analysis was done using Igor Pro version 6.22 (Wavemetrics) with RIBM script and ImageJ version 1.501 with minimal image corrections (tilt, drift and background corrections). The time stamps on HS-AFM videos are relative to plectasin addition into the liquid chamber. Image acquisition rate varied from 0.5 frames per second to 2 frames per second (see the figure/video legends).

mammalian cells = conditions: cited from earlier work
[7] = ITC of bivalent cation binding to plectasin in solution; conditions: mean of duplicate, read-out: Kd, Ca^2+ binding to plectasin (ITC)

## CC[C@H](C)[C@@H]1NC(=O)[C@H](CO)NC(=O)[C@H](CCCCN)NC(=O)[C@@H]2CSSC[C@@H](C(=O)N[C@@H](Cc3ccc(O)cc3)C(=O)O)NC(=O)[C@H](CCCCN)NC(=O)[C@@H]3CSSC[C@H](NC(=O)[C@H](CCC(N)=O)NC(=O)[C@H](CCSC)NC(=O)[C@H](CC(=O)O)NC(=O)[C@H](CC(=O)O)NC(=O)[C@H](CCC(=O)O)NC(=O)[C@H](CC(=O)O)NC(=O)[C@H](Cc4c[nH]c5ccccc45)NC(=O)[C@@H]4CCCN4C(=O)CNC(=O)[C@H](CC(N)=O)NC(=O)[C@@H](NC(=O)CNC(=O)[C@H](Cc4ccccc4)NC(=O)CN)CSSC[C@H](NC(=O)[C@H](Cc4ccc(O)cc4)NC(=O)CNC(=O)CNC(=O)[C@H](CCCCN)NC(=O)[C@H](Cc4ccc(O)cc4)NC(=O)CNC(=O)[C@H](CCCCN)NC1=O)C(=O)N[C@@H](C)C(=O)N[C@@H](CCCCN)C(=O)NCC(=O)NCC(=O)N[C@@H](Cc1ccccc1)C(=O)N[C@@H](C(C)C)C(=O)N3)C(=O)N[C@@H](Cc1c[nH]cn1)C(=O)N[C@@H](CC(N)=O)C(=O)N[C@@H](Cc1c[nH]cn1)C(=O)N2 [Plectasin wt]
[1]
  lipid II cluster/domain formation on GUVs: cluster formation
[2]
  Kd: 0.195 ± 0.035 µM
S. simulans 22 [3]; Ca^2+ variable assay
  improvement of antimicrobial activity with increasing Ca^2+ concentration: 4-8 fold
S. simulans 22 [3]; Calcium 0 mM
  MIC: 12.5 mg/L
S. simulans 22 [3]; Calcium 0.31 mM
  MIC: 1.56 mg/L
S. simulans 22 [3]; Calcium 0.5 mM
  MIC: 1.56 mg/L
S. simulans 22 [3]; Calcium 0.63 mM
  MIC: 1.56 mg/L
S. simulans 22 [3]; Calcium 1.25 mM
  MIC: 1.56 to 3.13 mg/L
S. simulans 22 [3]; Calcium 2.5 mM
  MIC: 3.13 mg/L
[4]; DOPC liposomes, 1 mM Mg^2+
  Kd: 0.08 µM
[4]; DOPC liposomes, without bivalent ions (100 μM EDTA)
  Kd: 0.155 µM
[4]; anionic DOPC/DOPG (1:1) liposomes, 1 mM Ca^2+
  Kd: 0.001 µM
[4]; anionic DOPC/DOPG (1:1) liposomes, 1 mM Mg^2+
  Kd: 0.004 µM
[4]; anionic DOPC/DOPG (1:1) liposomes, without bivalent ions (100 μM EDTA)
  Kd: 0.027 µM
[4]; neutral DOPC liposomes, with Ca^2+ vs without bivalent ions
  lipid II binding affinity increase in the presence of Ca^2+: > 100 fold
[4]; zwitterionic DOPC liposomes, 2 mol% lipid II, 1 mM Ca^2+, 100 nM plectasin, HEPES pH 7.2, 20 °C
  Kd: 0.001 µM
S. simulans
  leakage in S. simulans membranes (in words): does not cause leakage
S. simulans 22 [5]; Supplementary Table 1, cation-adjusted MHB, 37 °C, 16–20 h
  Minimum inhibitory concentration, S. simulans: 0,78 μg/mL
S. simulans 22 [5]; corresponding to 0.78 µg ml^−1
  MIC expressed as plectasin concentration: 0.177 µM (≈ 0.779 µg/mL)
S. pyogenes M3
  Minimum inhibitory concentration, S. pyogenes M3: ≤ 0,012 μg/mL
[6]
  plectasin concentration giving full coverage (AFM): 400 nM
  plectasin concentration giving partial coverage (AFM): 300 nM
[6]; 10 min after addition
  plectasin concentration above which supra-structures emerge (AFM): > 200 nM
Mammalian cells
  toxicity against mammalian cells: lack of plectasin toxicity against mammalian cells
[7]
  Kd: 0.159 ± 0.069 µM
